According to patent US4959363A, “Quinolonecarboxamide compounds, their preparation and use as antivirals” (Sterling Drug Inc., priority 1989, dated 1990):

How the values were obtained:
[1] = set-up: species or system albino mice; conditions: mouse
[2] = system: herpes simplex virus; experiment: In Vivo - Intravaginal Herpes Virus Infection in Mice; set-up: species or system albino mice; conditions: Mus musculus, 336 h, oral or intraperitoneal, b.i.d. 5 days, NA = Not active at dose levels tested, read-out: In Vivo MED (Minimum effective dose)
Method: In Vivo - Intravaginal Herpes Virus Infection in Mice
Approximately 1 hr. prior to infection, the vaginas of 15 gm albino mice were swabbed with cotton saturated with 0.1 N NaOH to remove vaginal secretions and to irritate the vaginal mucosa slightly. At the proper time, 0.05 ml of an appropriate dose of herpes simplex virus was placed deep in the vagina. Starting 2.5 hrs. prior to infection, the mice were medicated either orally or intraperitoneally. Medication was continued daily for a total of 5 days on a b.i.d. regimen. The test was terminated after 14 days. A comparison of the number of surviving mice and/or extension of survival was made at the end of the test. The criterion for activity was a statistically significant extension of the average survival time of the test group over that of the control mice in two experiments.

[3] = In vitro maximum tolerated dose (MTL), Vero cells; type: cell-based, African Green Monkey; conditions: monkey, In Vitro
[4] = system: Vero (African Green Monkey Kidney) cells; experiment: In vitro maximum tolerated dose (MTL), Vero cells; type: cell-based

Compound	In Vivo MTL (Maximum tolerated dose) [1]	minimal effective dose [2]	MNTC at 72 h ([3]; vero cells)	In Vitro MTL (Maximum tolerated dose) ([4]; monkey, vero cells, 72 h)	MNTC at 72 h ([3]; Vero cells)	In Vitro MTL (Maximum tolerated dose) ([4]; In Vitro, Vero cells, 4320 min)
CCN(CC)CNC(=O)c1cn(-c2ccc(F)cc2)c2cc(-c3ccncc3)ccc2c1=O [Example 3, N-(Diethylaminomethyl)-1-(4-fluorophenyl)-1,4-dihydro-4-oxo-7-(4-pyridinyl)-3-quinolinecarboxamide]	100	50 mg/kg/day	12.5 µg/mL	–	–	–
NC(=O)c1cn(-c2ccncc2)c2cc(-c3ccncc3)ccc2c1=O [Example 10, 1,4-Dihydro-4-oxo-1,7-di(4-pyridinyl)-3-quinolinecarboxamide]	75	50 to 75 mg/kg/day	> 200 µg/mL	–	–	–
NC(=O)c1cn(-c2cccc(F)c2)c2cc(-c3ccncc3)ccc2c1=O [Example 46e, 1,4-Dihydro-1-(3-fluorophenyl)-4-oxo-7-(4-pyridinyl)3-quinolinecarboxamide]	50	25 to 50 mg/kg/day	> 6.25 µg/mL	–	–	–
1,4-Dihydro-1-(4-fluorophenyl)-7-(3-methyl-5-thiazolyl)-4-oxo-3-quinolinecarboxamide [Example 37d]	> 100	–	–	> 100	–	–
NC(=O)c1cn(-c2ccc(Cl)cc2)c2cc(-c3ccncc3)ccc2c1=O [Example 32, 1-(4-Chlorophenyl)-1,4-dihydro-7-(4-pyridinyl)-4-oxo-3quinolinecarboxamide]	–	50 mg/kg/day	–	–	> 25 µg/mL	–
Cn1c(O)c(C(N)=O)c(=O)c2ccc(-c3ccncc3)cc21 [Example 39b, 1,4-Dihydro-2-hydroxy-1-methyl-4-oxo-7-(4-pyridinyl)3-quinolinecarboxamide]	150	150 to 200 mg/kg/day	3.1 µg/mL	–	–	–
NC(=O)c1cn(-c2ccc(Cl)c(Cl)c2)c2cc(-c3ccncc3)ccc2c1=O [Example 14, 1-(3,4-Dichlorophenyl)-1,4-dihydro-4-oxo-7-(4-pyridinyl)-3-quinolinecarboxamide]	100	50 mg/kg/day	> 12.5 µg/mL	–	–	–
NC(=O)c1c(N)n(-c2ccc(F)cc2)c2cc(-c3ccncc3)ccc2c1=O [Example 41c, 2-Amino-1,4-dihydro-1-(4-fluorophenyl)-4-oxo-7-(4-pyriridinyl)-3-quinolinecarboxamide]	100	50 mg/kg/day	> 100 µg/mL	–	–	–
NC(=O)c1cn(-c2ccc(F)cc2)c2cc(-c3cc[n+]([O-])cc3)ccc2c1=O [Example 2, 1-(4-Fluorophenyl)-1,4-dihydro-4-oxo-7-(N-oxide-4-pyridinyl)-3-quinolinecarboxamide]	100	25 mg/kg/day	> 12.5 µg/mL	–	–	–
NC(=O)c1cn(-c2ccc(F)cc2)c2cc(-c3ccncc3)ccc2c1=O [Example 1h, 1-(4-fluorophenyl)-1,4-dihydro-4-oxo-7-(4-pyridinyl)-3-quinolinecarboxamide]	50-100	12.5 to 25 mg/kg/day	> 3.1 µg/mL	–	–	–
CCn1c(=O)c(C(N)=O)c(O)c2ccc(-c3ccncc3)cc21 [Example 38c, 1-Ethyl-1,2-dihydro-4-hydroxy-2-oxo-7-(4-pyridinyl)-3quinolinecarboxamide]	100	100 to 200 mg/kg/day	> 12.5 µg/mL	–	–	–
CCn1cc(C(N)=O)c(=O)c2ccc(-c3ccncc3)cc21 [Example 6, 1-Ethyl-1,4-dihydro-4-oxo-7-(4-pyridinyl)-3-quinolinecarboxamide]	50	50 mg/kg/day	12.5 µg/mL	–	–	–
NC(=O)c1cn(-c2ccccc2)c2cc(-c3ccncc3)ccc2c1=O [Example 45e, 1,4-Dihydro-4-oxo-1-phenyl-7-(4-pyridinyl)-3-quinolinecarboxamide]	50	25 mg/kg/day	–	–	–	> 6.25
CCn1cc(C(=O)NC)c(=O)c2ccc(-c3ccncc3)cc21 [Example 28, 1-Ethyl-1,4-dihydro-N-methyl-4-oxo-7-(4-pyridinyl)-3quinolinecarboxamide]	50	50 mg/kg/day	> 25 µg/mL	–	–	–
Cc1cc(-c2ccc3c(=O)c(C(N)=O)cn(-c4ccc(F)cc4)c3c2)on1 [Example 22f]	> 200	–	> 100 µg/mL	–	–	–
NC(=O)c1cn(-c2ccc(Br)cc2)c2cc(-c3ccncc3)ccc2c1=O [Example 31, 1-(4-Bromophenyl)-1,4-dihydro-7-(4-pyridinyl)-4-oxo-3quinolinecarboxamide]	50	50 mg/kg/day	> 12.5 µg/mL	–	–	–
NC(=O)c1cn(-c2ccc(F)cc2F)c2cc(-c3ccncc3)ccc2c1=O [Example 15, 1-(2,4-Difluorophenyl)-1,4-dihydro-4-oxo-7-(4-pyridinyl)-3-quinolinecarboxamide]	< 25	–	3.1 µg/mL	–	–	–
